Assay results: the supplement of paper PMC10331698
± gives the standard deviation of the averaged measurements.

Experiments:
Experiment in all cases: level (log10 ratio to DMSO vehicle control); higher = higher biomarker level / cell amount than vehicle control
Conditions in all cases: in DMSO
[1] = compound: C=CC(=O)OCC(F)(F)C(F)(F)C(F)(F)C(F)(F)C(F)(F)C(F)(F)C(F)(F)F [1H,1H-Perfluorooctyl acrylate]
Description: (§1)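 BioMAP Diversity Plus panel of 12 human primary cell co-culture systems (3C, 4H, LPS, SAg, BT, BF4T, BE3C, CASM3C, HDF3CGF, KF3CT, MyoF, Mphg). Compounds were added 1 h before stimulation and left for 24 h (MyoF 48 h; BT 72 h for soluble read-outs or 6 d for IgG). Biomarkers were read by ELISA, cytotoxicity by SRB, PBMC viability and proliferation by Alamar Blue. Each well value was divided by the mean of 8 DMSO control wells on the same plate and log10 transformed; duplicate blinded samples were tested at 4 concentrations.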

Perfluoroheptanoic acid = compound: O=C(O)C(F)(F)C(F)(F)C(F)(F)C(F)(F)C(F)(F)C(F)(F)F [Perfluoroheptanoic acid]
Description: as §1

[2] = compound: OCC(F)(F)OC(F)(F)C(F)(F)OC(F)(F)CO [1H,1H,8H,8H-Perfluoro-3,6-dioxaoctane-1,8-diol]
Description: as §1

Perfluorobutanoic acid = compound: O=C(O)C(F)(F)C(F)(F)C(F)(F)F [Perfluorobutanoic acid]
Description: as §1

Perfluoropropanoic acid = compound: O=C(O)C(F)(F)C(F)(F)F [Perfluoropropanoic acid]
Description: as §1

[3] = compound: O=C(O)C(F)(F)OC(F)(F)C(F)(F)OC(F)(F)C(=O)O [Perfluoro-3,6-dioxaoctane-1,8-dioic acid]
Description: as §1

[4] = compound: FC(F)(F)C(F)(F)C(F)(F)C(F)(F)C(F)(F)C(F)(F)C(F)(F)C(F)(F)CCS [2-(Perfluorooctyl)ethanthiol]
Description: as §1

Row | Test System | level (log10) ([1]; 6700 nM) | level (log10) ([1]; 20000 nM) | level (log10) ([1]; 60000 nM) | level (log10) (Perfluoroheptanoic acid; 6700 nM) | level (log10) (Perfluoroheptanoic acid; 20000 nM) | level (log10) (Perfluoroheptanoic acid; 60000 nM) | level (log10) ([2]; 6700 nM) | level (log10) ([2]; 20000 nM) | level (log10) ([2]; 60000 nM) | level (log10) (Perfluorobutanoic acid; 6700 nM) | level (log10) (Perfluorobutanoic acid; 20000 nM) | level (log10) (Perfluorobutanoic acid; 60000 nM) | level (log10) (Perfluoropropanoic acid; 6700 nM) | level (log10) (Perfluoropropanoic acid; 20000 nM) | level (log10) (Perfluoropropanoic acid; 60000 nM) | level (log10) ([3]; 6700 nM) | level (log10) ([3]; 20000 nM) | level (log10) ([3]; 60000 nM) | level (log10) ([4]; 6700 nM) | level (log10) ([4]; 20000 nM)
1 | lMphg:CCL3/MIP-1alpha | 0.0215 ± 0.028 | 0.04 ± 0.0071 | 0.057 ± 0.0099 | -0.0265 ± 0.013 | -0.0075 ± 0.0078 | 0.018 ± 0.017 | -0.004 ± 0.04 | -0.0025 ± 0.022 | 0.0215 ± 0.029 | -0.0075 ± 0.00071 | -0.0115 ± 0.018 | 0.0355 ± 0.047 | -0.0105 ± 0.023 | -0.0235 ± 0.0021 | 0.0115 ± 0.013 | -0.036 ± 0.025 | -0.045 ± 0.0042 | -0.027 ± 0.04 | -0.019 ± 0.014 | -0.027 ± 0.014
2 | CASM3C:M-CSF | -0.0205 ± 0.032 | 0.0135 ± 0.00071 | -0.0075 ± 0.0021 | -0.004 ± 0.028 | -0.005 ± 0.028 | 0.0035 ± 0.049 | -0.014 ± 0.0014 | -0.0105 ± 0.005 | 0.0115 ± 0.0092 | -0.0095 ± 0.0064 | -0.0205 ± 0.013 | 0.0275 ± 0.063 | -0.0265 ± 0.16 | 0.0055 ± 0.0092 | 0.034 ± 0.065 | 0.0205 ± 0.016 | -0.0025 ± 0.0035 | 0.0385 ± 0.011 | 0.013 ± 0.0014 | 0.047 ± 0.014
3 | HDF3CGF:CD54/ICAM-1 | -0.015 ± 0.0028 | -0.037 ± 0.0042 | -0.0545 ± 0.013 | 0.004 ± 0.02 | -0.0145 ± 0.005 | -0.0255 ± 0.018 | 0.005 ± 0.0028 | -0.0165 ± 0.005 | -0.01 ± 0.014 | -0.005 ± 0.016 | 0.0035 ± 0.00071 | 0.001 ± 0.0057 | 0.007 ± 0.016 | 0.0065 ± 0.005 | -0.0045 ± 0.00071 | -0.0095 ± 0.0092 | 0.0015 ± 0.00071 | -0.0085 ± 0.0035 | -0.012 ± 0.0057 | -0.0145 ± 0.021
4 | MyoF:Decorin | -0.0145 ± 0.011 | -0.005 | 0.003 ± 0.018 | -0.0015 ± 0.013 | 0.036 ± 0.0042 | 0.0505 ± 0.035 | -0.0155 ± 0.011 | 0.003 ± 0.0071 | 0.02 ± 0.02 | -0.013 ± 0.0014 | -0.0105 ± 0.039 | -0.0025 ± 0.00071 | -0.0255 ± 0.073 | 0.002 ± 0.11 | 0.046 ± 0.089 | -0.0045 ± 0.011 | -0.01 | -0.0005 ± 0.013 | -0.0145 ± 0.018 | -0.0105 ± 0.033
5 | HDF3CGF:CXCL9/MIG | -0.0265 ± 0.0035 | -0.029 ± 0.03 | -0.0745 ± 0.0078 | -0.009 ± 0.0071 | -0.002 ± 0.021 | 0.0165 ± 0.0064 | -0.0035 ± 0.015 | -0.015 ± 0.037 | 0.0345 ± 0.067 | -0.005 ± 0.021 | -0.014 ± 0.0028 | 0.012 ± 0.024 | -0.019 ± 0.0014 | -0.01 ± 0.014 | -0.0195 ± 0.026 | -0.0185 ± 0.016 | 0.0135 ± 0.0092 | 0.0085 ± 0.005 | -0.0085 ± 0.0078 | -0.0125 ± 0.0092
6 | HDF3CGF:MMP-1 | 0.013 ± 0.034 | 0.0425 ± 0.0078 | 0.0365 ± 0.019 | -0.0105 ± 0.012 | 0.0025 ± 0.00071 | 0.0065 ± 0.005 | -0.0055 ± 0.0092 | -0.0115 ± 0.023 | -0.006 | 0.0135 ± 0.0064 | 0.0095 ± 0.0035 | 0.021 ± 0.027 | -0.0065 ± 0.0064 | 0.0045 ± 0.013 | 0.0035 ± 0.015 | -0.004 ± 0.013 | -0.003 ± 0.014 | -0.0025 ± 0.018 | -0.0095 ± 0.022 | -0.0235 ± 0.044
7 | HDF3CGF:SRB | -0.003 ± 0.0099 | 0.0015 ± 0.025 | 0.0115 ± 0.0092 | -0.029 ± 0.016 | 0.0125 ± 0.064 | -0.045 ± 0.052 | -0.031 ± 0.0057 | 0.0405 ± 0.033 | -0.0505 ± 0.016 | 0.0125 ± 0.0064 | -0.007 ± 0.0028 | 0.002 ± 0.0071 | -0.003 ± 0.0085 | -0.0175 ± 0.011 | -0.0335 ± 0.032 | 0.009 ± 0.041 | -0.0035 ± 0.015 | -0.0125 ± 0.012 | 0.0135 ± 0.023 | 0.011 ± 0.0085
8 | BE3C:SRB | 0.0005 ± 0.0078 | -0.003 ± 0.0085 | 0.0085 ± 0.015 | -0.006 ± 0.0071 | -0.0065 ± 0.0035 | 0.0035 ± 0.011 | -0.005 ± 0.0085 | -0.0015 ± 0.0064 | -0.0045 ± 0.012 | -0.009 ± 0.011 | 0 ± 0.0042 | -0.0005 ± 0.011 | -0.0015 ± 0.0021 | -0.003 | 0.0035 ± 0.00071 | -0.0005 ± 0.0021 | -0.0035 ± 0.0021 | 0.0025 ± 0.011 | 0.0055 ± 0.0092 | 0.0095 ± 0.005
